# Measured values published in patent publication US5451506A, “Oncostatin M and novel compositions having anti-neoplastic activity” (Oncogen Limited Partnership, priority 1993, dated 1995).
# B1: PBL-derived Oncostatin M: Oncostatin M isolated from conditioned medium of activated human T-lymphoblasts, approximately 80% pure (protein, UniProt P13725 26-221, looked up)
# Oncostatin-M: AAIGSCSKEYRVLLGQLQKQTDLMQDTSRLLDPYIRIQGLDVPKLREHCRERPGAFPSEETLRGLGRRGFLQTLNATLGCVLHRLADLEQRLPKAQDLERSGLNIEDLEKLQMARPNILGLRNNIYCMAQLLDNSDTAEPTKAGRGASQPPTPTPASDAFQRKLEGCRFLHGYHRFMHSVGRVFSKWGESPNRSRR
# How the values were obtained:
# [1] = tested on: A375 melanoma cells; experiment: Cell growth modulatory assay using 3H-thymidine incorporation into DNA (GIA); format: cell-based, human; set-up: Observed % Inhibition of 3H-TdR Incorporation: concentration or dose not given beside the values; settings: A375 Cells
# Method: (§1) The assays were performed in 96 flat well plates (Costar 3596). Human melanoma cells (A375) (3×10^3 /100 μl) or cells from another cell line of interest were at an appropriate cell density used. Cells in 100 μl growth medium were placed in each well. Three hours later, 100 μl of test sample in growth medium was added to each well. Plates were incubated at 37° C. for 3 days. Then 25 μl (0.5 μCi) of a solution of ^3 H-thymidine (specific activity 27 μCi/μg) was added to each well for the final 6 hours of incubation. The cells were then transferred to glass filter strips using a multiwell harvester (PHD Cell Harvester, Cambridge Technology, Inc.). The filters were transferred to scintillation vials. Two ml of scintillation fluid (ScientiVerse II, Fisher Scientific Co.) was added and the samples counted in a scintillation counter to quantitate ^3 H-thymidine incorporation.
# [2] = tested on: MCF-7 breast tumor cells; experiment: Inhibition of 3H-TdR incorporation, Oncostatin M and TNF-α; format: cell-based, human; settings: MCF-7 Cells
# Method: as §1
# Inhibition of ^3 H-TdR incorporation into A375 cells and MCF-7 cells were compared using the assay described in Example 1B, above. The cells were treated with either Oncostatin M alone, TNF-α (Amgen Biologicals, human recombinant TNF-α) alone, or with a combination of Oncostatin M and TNF-α.
# [3] = molecular target: T1, Oncostatin M receptor on A375 or A549 cells (Homo sapiens, UniProt P40189+Q99650); experiment: Specificity of Oncostatin M receptor: competition for binding of 125I-Oncostatin M; settings: competitor 20 μg/ml; 125I-Oncostatin M 30-50 ng/ml
# T1 construct: endogenous in cells; host or cells: A375 or A549 cells (intact monolayers)
# T1 sequence (Q99650 28-979): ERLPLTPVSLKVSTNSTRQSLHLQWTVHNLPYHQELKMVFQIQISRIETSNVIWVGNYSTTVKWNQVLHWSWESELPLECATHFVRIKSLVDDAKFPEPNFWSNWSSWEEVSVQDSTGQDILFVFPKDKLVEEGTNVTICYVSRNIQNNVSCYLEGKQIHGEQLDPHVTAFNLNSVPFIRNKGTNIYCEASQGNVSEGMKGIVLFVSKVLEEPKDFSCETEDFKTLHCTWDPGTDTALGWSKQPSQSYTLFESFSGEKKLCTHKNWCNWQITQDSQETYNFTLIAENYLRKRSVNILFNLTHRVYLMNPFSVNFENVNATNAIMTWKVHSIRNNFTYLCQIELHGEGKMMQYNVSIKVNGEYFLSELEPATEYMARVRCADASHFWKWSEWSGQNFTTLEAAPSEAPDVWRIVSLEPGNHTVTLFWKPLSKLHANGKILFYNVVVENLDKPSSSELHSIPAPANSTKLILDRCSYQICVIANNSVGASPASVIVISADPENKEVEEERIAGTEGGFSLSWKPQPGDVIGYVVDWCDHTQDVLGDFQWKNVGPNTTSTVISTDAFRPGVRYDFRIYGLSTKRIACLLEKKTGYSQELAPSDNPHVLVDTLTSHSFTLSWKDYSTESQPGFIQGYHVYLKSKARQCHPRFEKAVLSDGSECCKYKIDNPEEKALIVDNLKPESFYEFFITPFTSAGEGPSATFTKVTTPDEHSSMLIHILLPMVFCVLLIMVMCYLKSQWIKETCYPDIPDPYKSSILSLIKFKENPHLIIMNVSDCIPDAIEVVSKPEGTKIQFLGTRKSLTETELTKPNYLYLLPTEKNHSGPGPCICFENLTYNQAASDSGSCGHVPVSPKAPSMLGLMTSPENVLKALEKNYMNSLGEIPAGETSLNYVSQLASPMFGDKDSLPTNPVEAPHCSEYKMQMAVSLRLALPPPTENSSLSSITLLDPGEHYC
# T1 sequence (P40189 23-918): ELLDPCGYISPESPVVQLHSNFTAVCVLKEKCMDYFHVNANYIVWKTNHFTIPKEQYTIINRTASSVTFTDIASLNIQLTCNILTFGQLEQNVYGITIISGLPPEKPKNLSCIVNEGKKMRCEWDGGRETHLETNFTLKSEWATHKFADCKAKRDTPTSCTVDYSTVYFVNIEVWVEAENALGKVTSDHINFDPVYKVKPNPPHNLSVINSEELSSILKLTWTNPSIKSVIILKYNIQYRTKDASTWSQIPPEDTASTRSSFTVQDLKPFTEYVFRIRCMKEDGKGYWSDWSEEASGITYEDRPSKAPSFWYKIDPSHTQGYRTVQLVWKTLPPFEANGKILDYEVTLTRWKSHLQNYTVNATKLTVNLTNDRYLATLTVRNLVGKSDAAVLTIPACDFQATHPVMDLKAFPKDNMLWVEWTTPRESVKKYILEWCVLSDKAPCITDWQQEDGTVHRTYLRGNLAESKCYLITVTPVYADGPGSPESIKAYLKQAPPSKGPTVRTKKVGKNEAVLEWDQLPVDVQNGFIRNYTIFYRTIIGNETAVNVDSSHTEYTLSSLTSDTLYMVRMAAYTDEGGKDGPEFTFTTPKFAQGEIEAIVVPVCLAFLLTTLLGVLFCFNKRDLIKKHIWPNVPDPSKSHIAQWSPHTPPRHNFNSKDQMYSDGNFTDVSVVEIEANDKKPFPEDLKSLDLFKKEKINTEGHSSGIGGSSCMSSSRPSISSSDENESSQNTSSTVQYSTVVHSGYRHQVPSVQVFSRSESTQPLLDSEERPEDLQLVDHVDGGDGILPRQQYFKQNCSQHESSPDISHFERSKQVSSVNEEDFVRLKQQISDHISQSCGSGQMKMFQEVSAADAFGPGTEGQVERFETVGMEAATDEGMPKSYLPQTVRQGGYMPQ
# Method: The cell line of interest was plated in 48-well plates at a density of 2×10^5 cells/well and maintained at 37° C. for 16-24 hours before initiation of the assay. Cell monolayers were then washed once with Binding buffer (Linsley et al., Biochemistry (1986) 25:2978-2986). To measure total binding, ^125 I-Oncostatin M was added at concentrations ranging from 0.5-100 ng/ml. To measure non-specific binding, unlabeled Oncostatin M was added simultaneously with the ^125 I-Oncostatin M to replicate plates at a concentration 20- to 100-fold higher than the concentration of ^125 I-Oncostatin M. Binding was allowed to proceed for 2-5 hours at 23°, then the monolayers were washed four times with Binding Buffer, cell-bound radioactivity was solubilized with 1N NaOH and was counted in a gamma counter. Specific binding was calculated by subtracting the non-specific binding from total binding. The dissociation constant (Kd) and binding capacity was determined by Scatchard analysis (Scatchard, Ann. N.Y. Acad. Sci. (1949) 51:660).
# The specificity of the Oncostatin M receptor was determined by evaluating the ability of several other polypeptide growth factors to compete for binding of ^125 I-Oncostatin M (at 30-50 ng/ml) to A375 or A549 cells.
# [4] = tested on: WI26 fibroblasts; experiment: Cell growth modulatory assay using 3H-thymidine incorporation into DNA (GIA); format: cell-based, human; settings: 1000 GIA units/ml
# Method: as §1
# Human tumor cells (A375 melanoma cells, A549 lung cancer cells, HBT10 neuroblastoma cells, and SK-MEL28 melanoma cells) were seeded at 3×10^3 cells/well and normal fibroblasts (WI26 cells and WI38 cells) at 1.5×10^3 cells/well in 96-well plates. Various concentrations of purified Oncostatin M, obtained from the fraction from the C18^3 column with peak antiproliferative activity against A375 cells were used. The assay was performed as described in Example 1B above.
# [5] = tested on: Mouse L929 cells; experiment: Effect on mouse L929 cells; format: cell-based; settings: up to 1000 GIA units/ml
# Method: (§2) The ability of PBL-derived Oncostatin M to affect replication of a variety of cells was also investigated. Mouse L929 cells were insenstive to PBL-derived Oncostatin M using up to 1000 GIA units/ml. Growth of human fibroblasts, WI26, was stimulated by treatment with 1000 GIA units/ml. Normal human T-lymphocyte proliferation at 72 hours post mitogenesis was not affected by up to 500 GIA units/ml.
# [6] = tested on: Normal human T-lymphocyte; experiment: Normal human T-lymphocyte proliferation post mitogenesis; format: cell-based; settings: 72 hours post mitogenesis, up to 500 GIA units/ml
# Method: as §2
Molecule,Observed % Inhibition of 3H-TdR Incorporation [1],Observed % Inhibition of 3H-TdR Incorporation [2],Inhibitory activity towards binding of 125I-Oncostatin M [3],Growth of human fibroblasts WI26 [4],Replication of mouse L929 cells [5],Normal human T-lymphocyte proliferation [6]
TNF-α,7%,30%,None of these showed significant inhibitory activity,,,
B1,,,,stimulated,insenstive,not affected
